From ChEMBL document CHEMBL3991601, “The target landscape of clinical kinase drugs” (Science, 2017) come the findings set out here.

Molecules are shown by their SMILES. Counter-ions that a name gives are not always drawn. Activity calls are given as the source filed them. On the calls: in the data inactive means no Kd found up to 30 µM.

What is called Kd is the equilibrium constant for the complex coming apart.

Experiment [1] has as its target Serine/threonine-protein kinase 24 (Homo sapiens, UniProt Q9Y6E0).
In experiment [2] the target is Cell division cycle 7-related protein kinase (Homo sapiens, UniProt O00311).
Experiment [3] deals with T1, Cyclin-dependent kinase-like 5 (Homo sapiens, UniProt O76039).
T1 sequence (O76039 whole entry): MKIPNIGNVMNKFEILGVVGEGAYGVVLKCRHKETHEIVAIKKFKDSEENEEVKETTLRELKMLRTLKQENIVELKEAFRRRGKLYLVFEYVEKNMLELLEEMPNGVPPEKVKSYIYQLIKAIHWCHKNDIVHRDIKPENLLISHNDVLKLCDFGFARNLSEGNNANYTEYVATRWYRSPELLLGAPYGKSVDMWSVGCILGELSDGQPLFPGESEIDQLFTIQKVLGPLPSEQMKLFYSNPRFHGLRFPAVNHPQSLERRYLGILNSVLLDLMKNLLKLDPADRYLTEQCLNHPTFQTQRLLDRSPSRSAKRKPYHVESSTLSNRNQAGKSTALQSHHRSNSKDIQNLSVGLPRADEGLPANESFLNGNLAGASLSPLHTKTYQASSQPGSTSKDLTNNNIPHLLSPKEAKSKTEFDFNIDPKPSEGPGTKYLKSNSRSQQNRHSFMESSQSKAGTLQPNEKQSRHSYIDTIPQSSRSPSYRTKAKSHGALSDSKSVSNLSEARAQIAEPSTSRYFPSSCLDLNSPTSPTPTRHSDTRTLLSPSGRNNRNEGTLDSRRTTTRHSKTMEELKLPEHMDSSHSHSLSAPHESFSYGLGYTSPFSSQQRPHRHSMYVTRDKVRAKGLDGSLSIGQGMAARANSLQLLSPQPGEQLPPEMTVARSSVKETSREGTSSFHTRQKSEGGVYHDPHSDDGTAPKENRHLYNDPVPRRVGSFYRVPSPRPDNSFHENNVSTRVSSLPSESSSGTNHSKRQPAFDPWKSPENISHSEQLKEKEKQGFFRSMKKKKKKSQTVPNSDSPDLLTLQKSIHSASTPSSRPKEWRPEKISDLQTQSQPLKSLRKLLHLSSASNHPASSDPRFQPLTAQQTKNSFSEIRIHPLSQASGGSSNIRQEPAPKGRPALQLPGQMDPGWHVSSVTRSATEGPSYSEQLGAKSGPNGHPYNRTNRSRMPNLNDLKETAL

Experiment [4] addresses Eukaryotic peptide chain release factor GTP-binding subunit ERF3B (Homo sapiens, UniProt Q8IYD1).
Experiment [5] concerns the target Serine/threonine-protein kinase 38 (Homo sapiens, UniProt Q15208).
Experiment [6] addresses MAP kinase-activated protein kinase 3 (Homo sapiens, UniProt Q16644).
Experiment [7] addresses Dual specificity protein kinase CLK4 (Homo sapiens, UniProt Q9HAZ1).
In experiment [8] the target is T2, Isoleucine--tRNA ligase, mitochondrial (Homo sapiens, UniProt Q9NSE4).
T2 sequence (Q9NSE4 whole entry): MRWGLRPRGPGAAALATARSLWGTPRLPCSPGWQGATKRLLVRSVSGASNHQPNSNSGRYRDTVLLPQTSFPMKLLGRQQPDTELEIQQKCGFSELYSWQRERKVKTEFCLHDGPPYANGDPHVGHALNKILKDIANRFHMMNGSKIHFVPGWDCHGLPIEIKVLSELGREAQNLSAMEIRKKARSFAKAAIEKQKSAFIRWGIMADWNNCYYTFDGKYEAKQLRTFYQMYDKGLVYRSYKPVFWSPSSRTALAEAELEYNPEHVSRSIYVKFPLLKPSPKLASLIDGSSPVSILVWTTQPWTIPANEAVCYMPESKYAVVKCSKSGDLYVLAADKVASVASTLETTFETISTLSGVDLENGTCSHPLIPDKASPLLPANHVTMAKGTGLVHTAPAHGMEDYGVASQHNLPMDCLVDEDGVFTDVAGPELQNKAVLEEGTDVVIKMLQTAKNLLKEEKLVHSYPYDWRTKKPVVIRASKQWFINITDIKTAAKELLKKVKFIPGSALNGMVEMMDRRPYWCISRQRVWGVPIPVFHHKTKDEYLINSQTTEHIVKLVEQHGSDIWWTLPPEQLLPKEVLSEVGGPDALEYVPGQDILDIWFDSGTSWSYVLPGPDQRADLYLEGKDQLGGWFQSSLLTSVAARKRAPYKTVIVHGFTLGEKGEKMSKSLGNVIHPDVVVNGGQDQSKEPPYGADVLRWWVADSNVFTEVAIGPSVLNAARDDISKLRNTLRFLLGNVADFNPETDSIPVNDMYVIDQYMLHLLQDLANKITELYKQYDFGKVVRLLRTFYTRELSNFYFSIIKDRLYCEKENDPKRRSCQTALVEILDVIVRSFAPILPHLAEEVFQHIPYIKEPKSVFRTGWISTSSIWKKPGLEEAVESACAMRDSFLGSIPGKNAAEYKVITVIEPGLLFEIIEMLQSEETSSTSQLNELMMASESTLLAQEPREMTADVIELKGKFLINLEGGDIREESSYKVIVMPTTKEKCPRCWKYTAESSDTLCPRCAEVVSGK

Experiment [9] concerns the target Cyclin-dependent kinase 10 (Homo sapiens, UniProt Q15131).
Experiment [10] addresses Tyrosine-protein kinase JAK2 (Homo sapiens, UniProt O60674).

Chain of Cell division cycle 7-related protein kinase (O00311 whole entry): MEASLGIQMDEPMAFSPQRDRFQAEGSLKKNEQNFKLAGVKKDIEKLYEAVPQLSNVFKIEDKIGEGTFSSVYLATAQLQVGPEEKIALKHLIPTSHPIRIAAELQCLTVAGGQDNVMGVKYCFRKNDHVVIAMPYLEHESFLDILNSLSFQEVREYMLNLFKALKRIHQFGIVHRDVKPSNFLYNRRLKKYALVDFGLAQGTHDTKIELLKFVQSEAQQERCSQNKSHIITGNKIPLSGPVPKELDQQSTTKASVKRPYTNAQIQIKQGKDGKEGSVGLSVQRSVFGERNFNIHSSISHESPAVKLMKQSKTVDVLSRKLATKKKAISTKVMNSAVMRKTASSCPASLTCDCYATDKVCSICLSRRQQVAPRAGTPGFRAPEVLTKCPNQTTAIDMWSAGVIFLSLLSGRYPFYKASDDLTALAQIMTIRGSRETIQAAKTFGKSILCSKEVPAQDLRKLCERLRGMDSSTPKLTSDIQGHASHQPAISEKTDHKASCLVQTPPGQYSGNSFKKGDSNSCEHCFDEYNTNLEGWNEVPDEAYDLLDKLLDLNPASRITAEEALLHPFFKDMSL
Chain of Cyclin-dependent kinase 10 (Q15131 whole entry): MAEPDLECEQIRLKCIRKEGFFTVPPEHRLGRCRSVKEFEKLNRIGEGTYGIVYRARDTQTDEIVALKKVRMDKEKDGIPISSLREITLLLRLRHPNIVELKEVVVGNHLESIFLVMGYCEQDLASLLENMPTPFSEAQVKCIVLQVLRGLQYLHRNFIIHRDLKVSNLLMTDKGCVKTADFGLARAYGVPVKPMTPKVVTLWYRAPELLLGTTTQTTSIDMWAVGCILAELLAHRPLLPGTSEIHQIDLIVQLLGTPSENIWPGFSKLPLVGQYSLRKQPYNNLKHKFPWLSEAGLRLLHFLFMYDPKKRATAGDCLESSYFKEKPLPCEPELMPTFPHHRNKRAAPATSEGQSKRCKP
Chain of Serine/threonine-protein kinase 24 (Q9Y6E0 whole entry): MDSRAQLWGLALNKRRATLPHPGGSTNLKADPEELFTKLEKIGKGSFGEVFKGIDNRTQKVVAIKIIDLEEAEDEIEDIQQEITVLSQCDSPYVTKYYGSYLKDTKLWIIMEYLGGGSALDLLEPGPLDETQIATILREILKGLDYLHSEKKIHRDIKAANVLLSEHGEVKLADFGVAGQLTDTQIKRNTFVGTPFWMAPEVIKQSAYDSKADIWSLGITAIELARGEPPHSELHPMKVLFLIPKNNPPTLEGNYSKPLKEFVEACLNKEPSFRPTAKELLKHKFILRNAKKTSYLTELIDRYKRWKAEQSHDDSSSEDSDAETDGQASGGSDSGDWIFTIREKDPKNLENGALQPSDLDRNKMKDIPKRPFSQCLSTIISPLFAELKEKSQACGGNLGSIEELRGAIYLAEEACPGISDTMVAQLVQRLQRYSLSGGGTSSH
Chain of MAP kinase-activated protein kinase 3 (Q16644 whole entry): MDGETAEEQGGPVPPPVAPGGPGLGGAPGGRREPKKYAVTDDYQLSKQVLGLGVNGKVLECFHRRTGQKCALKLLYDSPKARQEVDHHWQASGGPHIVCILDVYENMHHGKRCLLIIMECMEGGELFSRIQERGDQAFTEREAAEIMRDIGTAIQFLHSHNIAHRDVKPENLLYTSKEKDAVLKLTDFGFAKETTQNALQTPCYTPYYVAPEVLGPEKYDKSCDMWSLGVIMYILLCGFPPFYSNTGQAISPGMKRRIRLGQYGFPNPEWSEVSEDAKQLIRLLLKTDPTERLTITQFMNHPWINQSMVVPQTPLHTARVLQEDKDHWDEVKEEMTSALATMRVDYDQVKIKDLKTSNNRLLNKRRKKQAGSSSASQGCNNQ
Chain of Serine/threonine-protein kinase 38 (Q15208 whole entry): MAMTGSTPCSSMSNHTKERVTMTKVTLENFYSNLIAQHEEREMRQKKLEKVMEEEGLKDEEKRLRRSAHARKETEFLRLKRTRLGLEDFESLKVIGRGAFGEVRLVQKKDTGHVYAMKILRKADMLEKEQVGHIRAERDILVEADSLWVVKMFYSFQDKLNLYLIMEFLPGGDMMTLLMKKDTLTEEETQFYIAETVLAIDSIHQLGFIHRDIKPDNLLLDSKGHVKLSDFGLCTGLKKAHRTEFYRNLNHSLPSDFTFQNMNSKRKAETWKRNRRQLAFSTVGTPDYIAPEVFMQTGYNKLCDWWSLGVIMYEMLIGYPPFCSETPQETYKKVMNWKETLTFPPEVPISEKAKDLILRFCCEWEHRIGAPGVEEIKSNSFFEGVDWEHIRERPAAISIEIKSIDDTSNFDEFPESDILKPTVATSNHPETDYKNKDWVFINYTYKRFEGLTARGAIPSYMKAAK
Chain of Eukaryotic peptide chain release factor GTP-binding subunit ERF3B (Q8IYD1 whole entry): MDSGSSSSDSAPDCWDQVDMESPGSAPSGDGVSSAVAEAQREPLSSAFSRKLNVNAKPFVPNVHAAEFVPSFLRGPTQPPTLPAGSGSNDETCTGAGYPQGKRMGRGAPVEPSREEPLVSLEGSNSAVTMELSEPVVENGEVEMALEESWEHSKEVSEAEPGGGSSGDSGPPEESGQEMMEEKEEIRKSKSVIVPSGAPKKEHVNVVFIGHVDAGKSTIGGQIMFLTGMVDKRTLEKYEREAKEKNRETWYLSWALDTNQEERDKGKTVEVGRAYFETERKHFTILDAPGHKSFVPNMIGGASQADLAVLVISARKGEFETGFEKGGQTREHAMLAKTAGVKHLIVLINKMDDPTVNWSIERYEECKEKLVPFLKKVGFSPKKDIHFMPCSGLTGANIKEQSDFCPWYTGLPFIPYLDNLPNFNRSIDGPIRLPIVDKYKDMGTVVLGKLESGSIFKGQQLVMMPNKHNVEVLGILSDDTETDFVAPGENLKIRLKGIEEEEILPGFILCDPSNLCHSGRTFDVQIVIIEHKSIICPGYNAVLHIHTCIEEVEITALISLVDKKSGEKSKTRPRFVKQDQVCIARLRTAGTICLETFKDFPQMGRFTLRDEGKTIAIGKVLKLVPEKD
Chain of Dual specificity protein kinase CLK4 (Q9HAZ1 whole entry): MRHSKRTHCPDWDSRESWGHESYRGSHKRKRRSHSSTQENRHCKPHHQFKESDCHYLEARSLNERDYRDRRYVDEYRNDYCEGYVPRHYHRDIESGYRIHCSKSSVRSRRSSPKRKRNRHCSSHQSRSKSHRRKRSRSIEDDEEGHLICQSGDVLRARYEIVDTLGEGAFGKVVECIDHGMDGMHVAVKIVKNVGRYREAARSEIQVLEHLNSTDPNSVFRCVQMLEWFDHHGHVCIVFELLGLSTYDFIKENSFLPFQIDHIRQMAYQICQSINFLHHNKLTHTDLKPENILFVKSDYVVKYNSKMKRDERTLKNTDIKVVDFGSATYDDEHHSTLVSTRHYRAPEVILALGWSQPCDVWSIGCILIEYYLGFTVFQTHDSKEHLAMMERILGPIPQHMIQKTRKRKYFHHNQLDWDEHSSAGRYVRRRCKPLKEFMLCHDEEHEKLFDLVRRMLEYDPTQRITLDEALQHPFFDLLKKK
Chain of Tyrosine-protein kinase JAK2 (O60674 whole entry): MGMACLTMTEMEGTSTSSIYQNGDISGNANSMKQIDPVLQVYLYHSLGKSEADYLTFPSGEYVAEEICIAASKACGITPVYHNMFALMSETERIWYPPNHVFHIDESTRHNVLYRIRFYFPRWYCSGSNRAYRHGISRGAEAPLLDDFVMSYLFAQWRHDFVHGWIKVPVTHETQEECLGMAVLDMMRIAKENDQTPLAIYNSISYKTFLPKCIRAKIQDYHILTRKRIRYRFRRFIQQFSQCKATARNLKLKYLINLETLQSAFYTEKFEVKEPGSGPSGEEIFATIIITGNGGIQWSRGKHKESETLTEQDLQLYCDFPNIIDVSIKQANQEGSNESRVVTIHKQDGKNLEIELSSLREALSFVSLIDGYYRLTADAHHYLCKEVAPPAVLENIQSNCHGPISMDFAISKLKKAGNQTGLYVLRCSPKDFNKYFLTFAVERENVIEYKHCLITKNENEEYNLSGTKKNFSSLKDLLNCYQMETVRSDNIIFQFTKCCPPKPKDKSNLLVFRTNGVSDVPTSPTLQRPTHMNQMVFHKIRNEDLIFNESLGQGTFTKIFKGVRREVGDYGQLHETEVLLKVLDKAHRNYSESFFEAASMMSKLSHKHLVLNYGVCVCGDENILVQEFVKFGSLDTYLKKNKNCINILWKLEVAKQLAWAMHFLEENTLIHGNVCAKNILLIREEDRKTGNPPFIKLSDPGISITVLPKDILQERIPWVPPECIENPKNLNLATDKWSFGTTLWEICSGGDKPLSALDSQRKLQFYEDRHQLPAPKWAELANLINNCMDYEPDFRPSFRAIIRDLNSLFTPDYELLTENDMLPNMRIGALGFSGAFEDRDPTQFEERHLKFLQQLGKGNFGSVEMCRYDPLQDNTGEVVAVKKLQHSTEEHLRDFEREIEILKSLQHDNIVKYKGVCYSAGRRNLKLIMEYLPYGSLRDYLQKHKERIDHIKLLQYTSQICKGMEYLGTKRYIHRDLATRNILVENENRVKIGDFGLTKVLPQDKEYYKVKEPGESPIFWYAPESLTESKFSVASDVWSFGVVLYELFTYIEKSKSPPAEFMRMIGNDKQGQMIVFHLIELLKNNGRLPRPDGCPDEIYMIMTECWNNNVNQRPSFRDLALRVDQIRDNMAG

As for `C[C@@H](Oc1cc(C(=O)Nc2ccc(C(=O)N3CCN(C)CC3)cc2)nnc1N)c1c(Cl)ccc(F)c1Cl`, the Kd in experiment [1] and in experiment [2] was > 30 µM (inactive) each time.
Regarding `C[C@H]1CNCCCN1S(=O)(=O)c1cccc2cncc(F)c12`, the Kd in experiment [3], in experiment [1] and in experiment [4] was > 30 µM (inactive) in each case.
Regarding `CCNC(=O)C#Cc1ccc2c(c1)NC(=O)/C2=C(\Nc1ccc(CN(C)C)cc1)c1ccccc1`, the dissociation constant Kd in [3] is 0.02 µM (active); in experiment [1] it was > 30 µM (inactive); in experiment [2], 3.99 µM (active); in experiment [5] it was > 30 µM (inactive).
Consider `C=CC(=O)N1CCC[C@H](n2c(=O)n(-c3ccc(Oc4ccccc4)cc3)c3c(N)ncnc32)C1`, for which the Kd in [3], in experiment [6], in [1] and in experiment [7] was > 30 µM (inactive) each time.
Regarding `Cc1nc(NC(=O)N2CCC[C@H]2C(N)=O)sc1-c1ccnc(C(C)(C)C(F)(F)F)c1` [ALPELISIB], the Kd in [8] and in experiment [7] was > 30 µM (inactive) each time.
Turning to `CNC(=O)c1ccccc1Sc1ccc2c(/C=C/c3ccccn3)n[nH]c2c1` [AXITINIB], the Kd in experiment [2] and in experiment [4] was > 30 µM (inactive) each time.
As for `COc1cc([C@@H]2c3cc4c(cc3[C@H](O)[C@H]3COC(=O)[C@@H]23)OCO4)cc(OC)c1OC` [AXL-1717], the Kd in [1], in experiment [9], in experiment [2], in experiment [8] and in [5] was > 30 µM (inactive) each time.
On to `COc1cc2ncnc(Oc3cccc(NC(=O)Nc4cc(C(C)(C)C(F)(F)F)on4)c3)c2cc1OC` [CEP-32496], for which the Kd in experiment [6], in [1], in [9], in experiment [2], in [8] and in experiment [7] was > 30 µM (inactive) throughout. In experiment [5], the Kd is > 30 µM (inactive).
With `CCS(=O)(=O)N1CCN(c2ccc(Nc3ncc(C(N)=O)c(NC4CC4)n3)cc2)CC1` [Cerdulatinib Hydrochloride], the Kd in experiment [3], in experiment [6], in [2] and in experiment [7] was > 30 µM (inactive) in each case.
With `Cn1cc(C2=C(c3cn(C4CCN(Cc5ccccn5)CC4)c4ccccc34)C(=O)NC2=O)c2ccccc21` [ENZASTAURIN], the Kd in [6] and in experiment [2] was > 30 µM (inactive) each time.
For the compound `C[C@@H](Oc1cc(-n2cnc3ccc(CN4CCN(C)CC4)cc32)sc1C(N)=O)c1ccccc1C(F)(F)F` [GSK-461364], the Kd in experiment [6] and in experiment [8] was > 30 µM (inactive) each time.
Regarding `O=C(Nc1cc(C(F)(F)F)cc(C(F)(F)F)c1)c1cc(Cl)ccc1O` [IMD-0354], the Kd in experiment [3], in [1] and in experiment [2] was > 30 µM (inactive) in each case.
Take `CNC(=O)c1cccc2cc(Oc3ccnc4cc(OCC5(N)CC5)c(OC)cc34)ccc12` [LUCITANIB]: the Kd in experiment [3], in experiment [1], in experiment [2] and in experiment [8] was > 30 µM (inactive) in each case.
Consider `CCOc1cc2ncc(C#N)c(Nc3ccc(F)c(Cl)c3)c2cc1NC(=O)/C=C/CN(C)C` [PELITINIB], for which the Kd in experiment [6], in [9], in [2], in experiment [8] and in experiment [5] was > 30 µM (inactive) each time.
Consider `CC(=O)NCC(=O)N1[C@@H]2CC[C@H]1c1ccc(Nc3ncc(C(F)(F)F)c(NC4CCC4)n3)cc12` [PF-03814735], for which the Kd in [1] is 0.019 µM.
On to `Cc1cnc(NC(=O)Nc2cc(Br)c(C)cc2OC[C@@H]2CNCCO2)cn1` [RABUSERTIB], for which the Kd in experiment [3], in experiment [6], in [1], in experiment [9], in experiment [2] and in [8] was > 30 µM (inactive) throughout. The Kd in experiment [10], in experiment [7] and in [4] was > 30 µM (inactive) throughout.
Turning to `CNC(=O)c1cc(Oc2ccc(NC(=O)Nc3cc(C(C)(C)C)nn3-c3ccc4ncccc4c3)c(F)c2)ccn1` [REBASTINIB], the figures for the Kd in [6], in experiment [10] and in experiment [7] were > 30 µM (inactive), 4.46 µM (active) and 2.53 µM, respectively.
Regarding `O=C(NOCCO)c1cc(CN2OCCCC2=O)c(F)c(F)c1Nc1ccc(I)cc1F` [RO-4987655], the Kd in [6], in experiment [2] and in [8] was > 30 µM (inactive) each time.
With `N#CC[C@H](C1CCCC1)n1cc(-c2ncnc3[nH]ccc23)cn1` [RUXOLITINIB], the Kd in experiment [2], in experiment [8] and in experiment [4] was > 30 µM (inactive) throughout.
For the compound `CCS(=O)(=O)c1cccc(-c2cc(C(=O)NC3CCN(C)CC3)c(C)c3[nH]c4ncc(C)cc4c23)c1` [TAK-901], the Kd in experiment [1] and in experiment [2] was > 30 µM (inactive) in each case.
As to `COc1cc2c(Nc3ccc(Cl)c(Cl)c3F)ncnc2cc1OC[C@@H]1C[C@@H]2CN(C)C[C@@H]2C1` [TESEVATINIB], the Kd was > 30 µM (inactive) in experiment [3]; 0.002 µM in experiment [6]; > 30 µM (inactive) in experiment [1]; > 30 µM (inactive) in experiment [8]; > 30 µM (inactive) in experiment [7].
In the case of `O=C1NC(=O)[C@@H](c2cn3c4c(cccc24)CCC3)[C@@H]1c1c[nH]c2ccccc12` [TIVANTINIB], the Kd in experiment [6] and in experiment [7] was > 30 µM (inactive) in each case.
`Cn1ncc(Cl)c1-c1cc(C(=O)N[C@H](CN)Cc2ccc(F)c(F)c2)oc1Cl` [UPROSERTIB]: the Kd in experiment [1] and in experiment [5] was > 30 µM (inactive) throughout.
With `CC(C)c1cc(CNc2nc(Nc3cc(C4CC4)[nH]n3)cc(N3CCN(C)CC3)n2)on1` [XL-228], the Kd in experiment [3], in experiment [1] and in [7] was > 30 µM (inactive) in each case.
With `CN1C/C=C/CCOc2cccc(c2)-c2ccnc(n2)Nc2cccc(c2)C1` [ZOTIRACICLIB], the Kd in experiment [3] and in experiment [8] was > 30 µM (inactive) in each case.
